Data on eleven compounds can be found in ChEMBL document CHEMBL1148874, “Design, synthesis, and anti-HIV activity of 2',3'-didehydro-2',3'-dideoxyuridine (d4U), 2',3'-dideoxyuridine (ddU) phosphoramidate 'ProTide' derivatives” (Bioorg Med Chem Lett, 2007).

Data set [1] relates to Human immunodeficiency virus 2. As to the kind of experiment: Inhibition of HIV2-induced cytopathogenicity in CEM/0 cells. Format: functional, organism-based. The note with it: Human immunodeficiency virus 2, CCRF-CEM.
Data set [2] is described as follows: Cytotoxicity against CEM/0 cells. The class given is cell-based, CCRF-CEM. Conditions: human.
Data set [3] concerns Human immunodeficiency virus 1. As to the kind of experiment: Inhibition of HIV1-induced cytopathogenicity in CEM/0 cells. The class given is functional, organism-based. Conditions: Human immunodeficiency virus 1, CCRF-CEM. (Protection from cytopathic effect is a common read-out in antiviral testing.)

As a reminder, the EC50 is the concentration giving half of the maximal effect. Usually CC50 stands for the concentration that lowers cell viability or growth by half. A high value points to lower toxicity to the cells. Regarding `Cc1cn([C@H]2C=C[C@@H](CO)O2)c(=O)[nH]c1=O` [STAVUDINE], the EC50 in data set [1] amounted to 0.77 µM. In data set [2], the CC50 came to 174 µM.
As to `O=c1ccn([C@H]2CC[C@@H](CO)O2)c(=O)[nH]1`, the EC50 in data set [3] and in data set [1] was over 250 µM each time. The compound further had a cytotoxic concentration (CC50) in data set [2] of over 250 µM.
Turning to `COC(=O)[C@@H](C)NP(=O)(OC[C@@H]1CC[C@H](n2ccc(=O)[nH]c2=O)O1)Oc1ccccc1` (some centres not stated), the EC50 in data set [3] is 36.7 µM; in data set [1], at least 50 µM. In addition, the midpoint of cytotoxicity in data set [2], the CC50, lay at 121 µM.
For `COC(=O)[C@@H](C)NP(=O)(OC[C@@H]1C=C[C@H](n2ccc(=O)[nH]c2=O)O1)Oc1ccccc1` (some centres not stated) the same measures were over 50 µM, over 10 µM and 96.6 µM.
For `CCOC(=O)[C@@H](C)NP(=O)(OC[C@@H]1C=C[C@H](n2ccc(=O)[nH]c2=O)O1)Oc1ccccc1` (some centres not stated) the same measures were over 50 µM, over 50 µM and 212 µM.
The corresponding values for `C[C@@H](NP(=O)(OC[C@@H]1CC[C@H](n2ccc(=O)[nH]c2=O)O1)Oc1cccc2ccccc12)C(=O)OCc1ccccc1` (some centres not stated) are 15 µM, 20 µM and 96.9 µM.
As for `C[C@@H](NP(=O)(OC[C@@H]1CC[C@H](n2ccc(=O)[nH]c2=O)O1)Oc1ccccc1)C(=O)OC(C)(C)C` (some centres not stated), the EC50 in data set [3] and in data set [1] was over 250 µM in each case. Besides, in data set [2], the CC50 is over 250 µM.
As to `C[C@@H](NP(=O)(OC[C@@H]1C=C[C@H](n2ccc(=O)[nH]c2=O)O1)Oc1cccc2ccccc12)C(=O)OCc1ccccc1` (some centres not stated), the 50% effective concentration (EC50) in data set [3] and in data set [1] was 25 µM throughout. In data set [2], this compound had a CC50 of 100 µM.
In the case of `CCOC(=O)[C@@H](C)NP(=O)(OC[C@@H]1CC[C@H](n2ccc(=O)[nH]c2=O)O1)Oc1ccccc1` (some centres not stated), the EC50 in data set [3] was 43.3 µM; in data set [1], 93.3 µM. In data set [2], this compound came in with a CC50 of over 250 µM.
The corresponding values for `O=c1ccn([C@H]2C=C[C@@H](CO)O2)c(=O)[nH]1` are over 50 µM, over 50 µM and 207 µM.
The corresponding values for `C[C@@H](NP(=O)(OC[C@@H]1C=C[C@H](n2ccc(=O)[nH]c2=O)O1)Oc1ccccc1)C(=O)OC(C)(C)C` (some centres not stated) are over 250 µM, over 250 µM and over 250 µM.
